Each block holds one molecule with its values, some of them ahead of it.
How the values were obtained:
WT-IDH1 (C269) = molecular target: T1, WT-IDH1 (C269) (Homo sapiens, UniProt O75874); test: Blockade of IA-rhodamine labeling of WT-IDH1; type: binding; settings: 2 μM protein in MDA-MB-231 lysate
T1 construct: Full length cDNAs encoding for IDH1 (Open Biosystems, Clone ID: 3880331) and IMPDH2; His6 (C); made in house; host or cells: E. coli BL21(DE3)

USP16 C205 (Q9Y5T5) = USP16 C205 (Q9Y5T5) (Homo sapiens, UniProt Q9Y5T5); test: Competitive isoTOP-ABPP in situ; type: cell-based; settings: MDA-MB-231 cells
Sequence of USP16 C205 (Q9Y5T5) (Q9Y5T5 whole entry): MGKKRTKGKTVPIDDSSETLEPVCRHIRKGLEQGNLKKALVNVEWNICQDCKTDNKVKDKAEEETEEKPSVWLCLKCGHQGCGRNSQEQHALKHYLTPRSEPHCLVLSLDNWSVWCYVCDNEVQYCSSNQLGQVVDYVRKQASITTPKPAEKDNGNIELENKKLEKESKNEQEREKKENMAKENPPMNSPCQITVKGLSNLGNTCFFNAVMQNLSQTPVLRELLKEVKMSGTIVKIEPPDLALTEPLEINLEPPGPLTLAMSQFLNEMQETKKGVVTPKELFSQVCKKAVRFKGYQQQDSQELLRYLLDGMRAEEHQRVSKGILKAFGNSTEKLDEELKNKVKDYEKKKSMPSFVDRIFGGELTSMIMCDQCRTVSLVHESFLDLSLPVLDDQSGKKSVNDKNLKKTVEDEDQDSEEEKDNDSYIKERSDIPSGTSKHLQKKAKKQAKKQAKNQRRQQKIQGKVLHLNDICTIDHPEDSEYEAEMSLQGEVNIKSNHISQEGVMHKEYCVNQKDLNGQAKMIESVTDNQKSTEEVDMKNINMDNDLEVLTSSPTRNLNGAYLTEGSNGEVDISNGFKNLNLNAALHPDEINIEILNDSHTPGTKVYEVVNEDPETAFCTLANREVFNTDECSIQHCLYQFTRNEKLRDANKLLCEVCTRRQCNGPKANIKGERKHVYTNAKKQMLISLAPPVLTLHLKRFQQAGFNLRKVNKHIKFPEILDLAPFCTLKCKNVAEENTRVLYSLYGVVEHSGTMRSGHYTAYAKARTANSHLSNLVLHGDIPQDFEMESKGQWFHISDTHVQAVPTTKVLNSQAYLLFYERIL

ACO2 C385 (Q99798) = ACO2 C385 (Q99798) (Homo sapiens, UniProt Q99798); test: Competitive isoTOP-ABPP in situ; type: cell-based; settings: MDA-MB-231 cells
Sequence of ACO2 C385 (Q99798) (Q99798 28-780): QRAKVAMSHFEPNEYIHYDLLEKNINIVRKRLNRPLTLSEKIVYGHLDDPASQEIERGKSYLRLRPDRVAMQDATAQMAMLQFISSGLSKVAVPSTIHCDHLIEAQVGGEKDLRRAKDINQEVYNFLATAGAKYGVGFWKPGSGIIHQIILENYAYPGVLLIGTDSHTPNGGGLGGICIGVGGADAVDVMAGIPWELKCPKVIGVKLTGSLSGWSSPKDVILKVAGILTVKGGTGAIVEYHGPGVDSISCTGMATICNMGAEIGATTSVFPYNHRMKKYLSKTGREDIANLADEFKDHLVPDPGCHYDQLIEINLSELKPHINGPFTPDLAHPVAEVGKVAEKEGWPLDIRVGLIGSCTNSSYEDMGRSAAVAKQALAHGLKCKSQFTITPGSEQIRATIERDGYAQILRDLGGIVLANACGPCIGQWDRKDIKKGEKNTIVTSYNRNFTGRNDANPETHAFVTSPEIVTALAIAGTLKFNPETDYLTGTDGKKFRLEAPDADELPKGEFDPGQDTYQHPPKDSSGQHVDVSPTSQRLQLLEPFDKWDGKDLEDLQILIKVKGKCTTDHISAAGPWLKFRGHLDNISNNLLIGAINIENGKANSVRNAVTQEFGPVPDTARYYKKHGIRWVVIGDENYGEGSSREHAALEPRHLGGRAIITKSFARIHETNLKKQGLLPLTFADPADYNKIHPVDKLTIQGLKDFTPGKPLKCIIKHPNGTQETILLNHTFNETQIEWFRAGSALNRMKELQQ

PRMT1 (C109) = molecular target: T2, PRMT1 (C109) (Homo sapiens, UniProt Q99873); test: Blockade of IA-rhodamine labeling of recombinant PRMT1 (gel-based ABPP); type: binding
T2 construct: Full length PRMT1 subcloned into pET45b (+) (Novagen) was previously generated by the Cravatt lab; inferred from Ni-NTA purification and the pET45b vector; made in house; host or cells: E. coli BL21(DE3)
T2 sequence (Q99873 11-371 limits assumed): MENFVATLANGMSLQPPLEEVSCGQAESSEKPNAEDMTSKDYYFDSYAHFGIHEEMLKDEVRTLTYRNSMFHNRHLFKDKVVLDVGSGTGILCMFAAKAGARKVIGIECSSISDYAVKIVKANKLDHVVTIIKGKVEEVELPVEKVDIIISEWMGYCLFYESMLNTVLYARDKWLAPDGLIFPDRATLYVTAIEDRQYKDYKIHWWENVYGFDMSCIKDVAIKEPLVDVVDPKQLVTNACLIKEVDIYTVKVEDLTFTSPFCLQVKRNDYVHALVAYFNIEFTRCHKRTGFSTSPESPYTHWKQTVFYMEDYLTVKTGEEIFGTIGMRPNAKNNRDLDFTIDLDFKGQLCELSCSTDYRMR

CYR61 C70 (O00622) = CYR61 C70 (O00622) (Homo sapiens, UniProt O00622); test: Competitive isoTOP-ABPP, cell lysates; type: binding
Sequence of CYR61 C70 (O00622) (O00622 25-381): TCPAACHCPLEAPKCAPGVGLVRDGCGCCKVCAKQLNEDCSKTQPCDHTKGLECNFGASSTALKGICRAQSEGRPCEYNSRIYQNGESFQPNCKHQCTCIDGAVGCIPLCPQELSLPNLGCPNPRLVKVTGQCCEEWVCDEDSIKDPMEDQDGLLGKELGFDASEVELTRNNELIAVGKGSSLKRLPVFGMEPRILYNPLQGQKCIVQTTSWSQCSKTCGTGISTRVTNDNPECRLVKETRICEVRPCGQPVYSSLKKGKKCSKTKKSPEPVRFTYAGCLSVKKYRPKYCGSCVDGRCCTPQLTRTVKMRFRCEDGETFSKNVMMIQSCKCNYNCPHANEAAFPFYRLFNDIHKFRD

[1] = molecular target: cysteines in MDA-MB-231 and Ramos cells (Homo sapiens, UniProt P16455); test: Competitive isoTOP-ABPP in situ (fragment-treated cells); type: cell-based; settings: 200 μM, insitu, ramos
Sequence of cysteines in MDA-MB-231 and Ramos cells (Homo sapiens, UniProt P16455) (P16455 whole entry, the tested form may be a part): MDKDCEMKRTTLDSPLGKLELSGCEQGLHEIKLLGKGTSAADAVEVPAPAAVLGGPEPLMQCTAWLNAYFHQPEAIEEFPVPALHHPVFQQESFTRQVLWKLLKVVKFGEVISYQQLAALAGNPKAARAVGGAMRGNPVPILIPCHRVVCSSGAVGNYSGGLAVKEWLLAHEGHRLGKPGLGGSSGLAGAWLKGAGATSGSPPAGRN

[2] = molecular target: cysteines in MDA-MB-231 and Ramos cells (Homo sapiens, UniProt Q9Y2S7); test: as above; type: cell-based; settings: 200 μM, insitu, 231
Sequence of cysteines in MDA-MB-231 and Ramos cells (Homo sapiens, UniProt Q9Y2S7) (Q9Y2S7 52-368): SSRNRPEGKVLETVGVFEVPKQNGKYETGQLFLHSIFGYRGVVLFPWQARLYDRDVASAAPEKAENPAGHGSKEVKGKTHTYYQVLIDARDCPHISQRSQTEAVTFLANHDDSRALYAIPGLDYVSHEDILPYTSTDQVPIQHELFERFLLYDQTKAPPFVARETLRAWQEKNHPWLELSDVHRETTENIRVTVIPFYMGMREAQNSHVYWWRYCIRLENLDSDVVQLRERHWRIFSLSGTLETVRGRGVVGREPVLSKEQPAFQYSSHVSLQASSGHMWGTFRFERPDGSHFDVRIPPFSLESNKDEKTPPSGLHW

[3] = molecular target: cysteines in MDA-MB-231 and Ramos cells (Homo sapiens, UniProt Q15796); test: as above; type: cell-based; settings: 200 μM, insitu
Sequence of cysteines in MDA-MB-231 and Ramos cells (Homo sapiens, UniProt Q15796) (Q15796 whole entry): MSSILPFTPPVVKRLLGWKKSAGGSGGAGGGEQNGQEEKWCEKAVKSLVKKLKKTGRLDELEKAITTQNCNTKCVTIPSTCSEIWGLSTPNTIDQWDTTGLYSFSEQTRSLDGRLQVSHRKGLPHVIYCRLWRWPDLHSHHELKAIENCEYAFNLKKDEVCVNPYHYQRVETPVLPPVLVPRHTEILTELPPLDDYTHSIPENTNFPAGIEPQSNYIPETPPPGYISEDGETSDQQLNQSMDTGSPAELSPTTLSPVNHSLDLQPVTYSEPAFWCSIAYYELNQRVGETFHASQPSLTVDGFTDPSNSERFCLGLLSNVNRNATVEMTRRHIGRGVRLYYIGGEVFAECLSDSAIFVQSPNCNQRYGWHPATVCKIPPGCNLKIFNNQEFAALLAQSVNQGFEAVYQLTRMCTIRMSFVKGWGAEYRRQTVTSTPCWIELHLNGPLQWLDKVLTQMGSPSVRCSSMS

[4] = molecular target: cysteines in MDA-MB-231 and Ramos cells (Homo sapiens, UniProt A2A288); test: as above; type: cell-based; settings: 200 μM, insitu, ramos
Sequence of cysteines in MDA-MB-231 and Ramos cells (Homo sapiens, UniProt A2A288) (A2A288 whole entry): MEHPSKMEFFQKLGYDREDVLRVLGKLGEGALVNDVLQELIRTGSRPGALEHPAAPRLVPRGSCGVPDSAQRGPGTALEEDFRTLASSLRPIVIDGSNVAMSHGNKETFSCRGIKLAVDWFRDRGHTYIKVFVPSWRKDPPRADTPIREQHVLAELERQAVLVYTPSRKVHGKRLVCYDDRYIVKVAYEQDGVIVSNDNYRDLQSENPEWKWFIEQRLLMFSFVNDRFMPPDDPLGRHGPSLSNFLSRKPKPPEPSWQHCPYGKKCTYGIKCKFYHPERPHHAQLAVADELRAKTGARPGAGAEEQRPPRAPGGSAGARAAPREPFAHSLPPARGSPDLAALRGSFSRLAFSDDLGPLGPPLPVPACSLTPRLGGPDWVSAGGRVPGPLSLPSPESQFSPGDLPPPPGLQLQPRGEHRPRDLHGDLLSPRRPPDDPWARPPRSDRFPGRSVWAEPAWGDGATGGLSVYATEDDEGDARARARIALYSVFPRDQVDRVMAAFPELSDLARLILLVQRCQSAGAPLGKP

T1 sequence (O75874 whole entry): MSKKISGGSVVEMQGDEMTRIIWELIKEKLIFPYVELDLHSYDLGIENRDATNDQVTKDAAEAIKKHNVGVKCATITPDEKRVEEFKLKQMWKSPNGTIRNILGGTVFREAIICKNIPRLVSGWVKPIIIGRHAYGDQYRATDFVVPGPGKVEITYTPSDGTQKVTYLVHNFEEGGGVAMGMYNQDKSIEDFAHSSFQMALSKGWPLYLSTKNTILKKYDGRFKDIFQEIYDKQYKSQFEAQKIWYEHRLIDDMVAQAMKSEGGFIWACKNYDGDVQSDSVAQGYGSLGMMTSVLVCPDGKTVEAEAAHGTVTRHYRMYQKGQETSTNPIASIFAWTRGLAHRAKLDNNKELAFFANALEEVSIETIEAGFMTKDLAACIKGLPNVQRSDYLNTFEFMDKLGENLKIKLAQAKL

SMILES: COc1ccc2c(c1)CCCN2C(=O)CCl [compound 2]
IC50 (WT-IDH1 (C269)): > 50 µM | isoTOP-ABPP reactivity profile (ratio) 2_200 μM_in-situ_231 (USP16 C205 (Q9Y5T5); fragment 2 at 200 μM): 7.9 | isoTOP-ABPP reactivity profile (ratio) 2_200 μM_in-situ_231 (ACO2 C385 (Q99798); fragment 2 at 200 μM): 20.0

SMILES: O=C(CCl)Nc1cc(C(F)(F)F)cc(C(F)(F)F)c1 [compound 3]
blockade of IA-rhodamine labeling of PRMT1 (in words) (PRMT1 (C109); recombinant WT-PRMT1 in cell lysate): inactive | R value (DMSO/fragment) (CYR61 C70 (O00622); 500 μM, in vitro, MDA-MB-231): 20.0

SMILES: COc1ccc(C2CC(c3cccs3)=NN2C(=O)CCl)cc1 (stereo not drawn) [compound 4]
isoTOP-ABPP reactivity profile (ratio) 4_100 μM_in-situ_231 (USP16 C205 (Q9Y5T5); fragment 4 at 100 μM): 20.0 | isoTOP-ABPP reactivity profile (ratio) 4_100 μM_in-situ_231 (ACO2 C385 (Q99798); fragment 4 at 100 μM): 1.0

SMILES: O=C(CCl)N1CCN(S(=O)(=O)c2ccccc2F)CC1 [compound 10]
isoTOP-ABPP ratio, cysteine P16455_C145 [1]: 20.0 | isoTOP-ABPP ratio, cysteine Q9Y2S7_C143 [2]: 13.9

SMILES: Cn1cc(S(=O)(=O)N2CCOCC2)cc1C(=O)NC(=O)CCl [compound 11]
IC50 (PRMT1 (C109); recombinant WT-PRMT1 1 μM in cell lysate, fragment 1 h): 36 µM

SMILES: O=C(CCl)N1CCC(C(O)(c2ccccc2)c2ccccc2)CC1 [compound 20]
IC50 (WT-IDH1 (C269)): 2.9 µM

SMILES: O=C(CCl)NC12CC3CC(CC(C3)C1)C2 [compound 21]
isoTOP-ABPP ratio, cysteine Q15796_C81 [3]; 231: 1.3

Next, values leading:

isoTOP-ABPP ratio (reactivity profile), O00622_C70 (CYR61 C70 (O00622); 500 μm in-vitro ramos_231): 1.1
SMILES: CC(C)CCOCCNC(=O)CCl [compound 27]

isoTOP-ABPP ratio A2A288_C367 [4]: 1.3 | isoTOP-ABPP ratio Q15796_C81 ([3]; ramos): 1.3
SMILES: O=C(CCl)N1CCN(CC(=O)N2CCOCC2)CC1 [compound 29]

isoTOP-ABPP ratio A2A288_C367 [4]: 1.9 | isoTOP-ABPP ratio, P16455_C145 [1]: 1.2
SMILES: C=CC(=O)N(Cc1cccnc1)c1cc(C(F)(F)F)cc(C(F)(F)F)c1 [compound 31]

isoTOP-ABPP ratio Q9Y2S7_C143 [2]: 1.2
SMILES: Cc1ccc(C=C(C#N)C(=O)NCCN2CCOCC2)cc1 [compound 41]

— patent publication US10670605B2, “Cysteine reactive probes and uses thereof” (The Scripps Research Institute, priority 2015, dated 2020)
